Source: patent US11034650B2, “Compounds useful for treating a Mannheimia haemolytica or Histophilus somni infection” (Intervet Inc., priority 2016, dated 2021)
≈ marks a conversion by molar mass, not a printed value.

How the values were obtained:
Type in all cases: cell-based
[1] = tested on: Mannheimia haemolytica MH 13065 (XB0446-6003.9, BRD field isolate); assay: MIC, broth-microdilution (CLSI VET01-A4), strain MH 13065; conditions: Mannheimia haemolytica strain MH 13065, broth-microdilution; unit assumed
Summary of the method: (§1)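 Read-out is unaided visual inspection for turbidity. The minimum inhibitory concentration is the lowest tested level without detectable growth across a two-fold compound series.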

[2] = tested on: Pasteurella multocida PM 6267 (P 2225 (L386), reference strain, mouse infection strain); assay: MIC, broth-microdilution (CLSI VET01-A4), strain PM 6267; conditions: Pasteurella multocida strain PM 6267, broth-microdilution; unit assumed
Summary of the method: as §1

[3] = tested on: Pasteurella multocida PM 12080 (IV102277-0093, BRD field isolate); assay: MIC, broth-microdilution (CLSI VET01-A4), strain PM 12080; conditions: Pasteurella multocida strain PM 12080, broth-microdilution; unit assumed
Summary of the method: as §1

[4] = tested on: Pasteurella multocida PM 6391 (ATCC 43137, reference strain); assay: MIC, broth-microdilution (CLSI VET01-A4), strain PM 6391; conditions: Pasteurella multocida strain PM 6391, broth-microdilution; unit assumed
Summary of the method: as §1

[5] = tested on: Mannheimia haemolytica MH 10720 (154, BRD field isolate); assay: MIC, broth-microdilution (CLSI VET01-A4), strain MH 10720; conditions: Mannheimia haemolytica strain MH 10720, broth-microdilution; unit assumed
Summary of the method: as §1

[6] = tested on: Mannheimia haemolytica MH 13093 (XB0472-6014.1, BRD field isolate); assay: MIC, broth-microdilution (CLSI VET01-A4), strain MH 13093; conditions: Mannheimia haemolytica strain MH 13093, broth-microdilution; unit assumed
Summary of the method: as §1

[7] = tested on: Mannheimia haemolytica MH 6374 (ATCC 33396, reference strain); assay: MIC, broth-microdilution (CLSI VET01-A4), strain MH 6374; conditions: Mannheimia haemolytica strain MH 6374, broth-microdilution; unit assumed
Summary of the method: as §1

[8] = tested on: Mannheimia haemolytica MH 6357 (M7/2, reference strain, cattle infection strain); assay: MIC, broth-microdilution (CLSI VET01-A4), strain MH 6357; conditions: Mannheimia haemolytica strain MH 6357, broth-microdilution; unit assumed
Summary of the method: as §1

[9] = tested on: Mannheimia haemolytica MH 12587 (1071, BRD field isolate, macrolide-resistance: erm+, E+); assay: MIC, broth-microdilution (CLSI VET01-A4), strain MH 12587; conditions: Mannheimia haemolytica strain MH 12587, broth-microdilution; unit assumed
Summary of the method: as §1

[10] = tested on: Pasteurella multocida PM 10775 (080130003051, BRD field isolate); assay: MIC, broth-microdilution (CLSI VET01-A4), strain PM 10775; conditions: Pasteurella multocida strain PM 10775, broth-microdilution; unit assumed
Summary of the method: as §1

| Compound | MIC PM 6267 [2] [µg/mL] | MIC PM 12080 [3] [µg/mL] | MIC PM 6391 [4] [µg/mL] | MIC PM 10775 [10] [µg/mL] | MIC MH 13065 [1] [µg/mL] | MIC MH 10720 [5] [µg/mL] | MIC MH 13093 [6] [µg/mL] | MIC MH 6374 [7] [µg/mL] | MIC MH 6357 [8] [µg/mL] | MIC MH 12587 [9] [µg/mL] |
| --- | --- | --- | --- | --- | --- | --- | --- | --- | --- | --- |
| CC(C)(O)[C@H](NC(=O)c1ccc(C#Cc2ccc(CNC3CC3)cc2)cc1)C(=O)NO [Compound 219] | ≤ 0.1 | ≤ 0.1 | ≤ 0.1 | ≤ 0.1 | 0.4 (≈ 0.949 µM) | ≤ 0.1 | 0.8 (≈ 1.9 µM) | 0.4 (≈ 0.949 µM) | 1.6 (≈ 3.8 µM) | 1.6 (≈ 3.8 µM) |
| CC(C)(O)[C@H](NC(=O)c1ccc(C#Cc2ccc(CN3CCOCC3)cc2)cc1)C(=O)NO [Compound 222] | ≤ 0.1 | 0.2 (≈ 0.443 µM) | ≤ 0.1 | ≤ 0.1 | 1.6 (≈ 3.54 µM) | 0.2 (≈ 0.443 µM) | 1.6 (≈ 3.54 µM) | 1.6 (≈ 3.54 µM) | 0.8 (≈ 1.77 µM) | 1.6 (≈ 3.54 µM) |
| CC(C)(O)[C@H](NC(=O)c1ccc(C#Cc2ccc(CNC3CCC3)cc2)cc1)C(=O)NO [Compound 226] | ≤ 0.1 | 0.4 (≈ 0.918 µM) | 0.4 (≈ 0.918 µM) | ≤ 0.1 | 3.1 (≈ 7.12 µM) | 0.8 (≈ 1.84 µM) | 6.3 (≈ 14.5 µM) | 3.1 (≈ 7.12 µM) | 3.1 (≈ 7.12 µM) | 12.5 (≈ 28.7 µM) |
| CC(C)(O)[C@H](NC(=O)c1ccc(C#Cc2ccc(CNC3CCCC3)cc2)cc1)C(=O)NO [Compound 227] | 0.4 (≈ 0.89 µM) | 0.8 (≈ 1.78 µM) | 0.8 (≈ 1.78 µM) | 0.2 (≈ 0.445 µM) | 6.3 (≈ 14 µM) | 1.6 (≈ 3.56 µM) | 12.5 (≈ 27.8 µM) | 12.5 (≈ 27.8 µM) | 12.5 (≈ 27.8 µM) | 25 (≈ 55.6 µM) |

Now from value to compound, other results behind:

| MIC PM 6267 [2] [µg/mL] | MIC PM 12080 [3] [µg/mL] | MIC PM 6391 [4] [µg/mL] | MIC PM 10775 [10] [µg/mL] | Compound | MIC MH 13065 [1] [µg/mL] | MIC MH 10720 [5] [µg/mL] | MIC MH 13093 [6] [µg/mL] | MIC MH 6374 [7] [µg/mL] | MIC MH 6357 [8] [µg/mL] | MIC MH 12587 [9] [µg/mL] |
| --- | --- | --- | --- | --- | --- | --- | --- | --- | --- | --- |
| ≤ 0.1 | 0.4 (≈ 0.949 µM) | 0.4 (≈ 0.949 µM) | ≤ 0.1 | C=CCNCc1ccc(C#Cc2ccc(C(=O)N[C@H](C(=O)NO)C(C)(C)O)cc2)cc1 [Compound 220] | 0.8 (≈ 1.9 µM) | ≤ 0.1 | 1.6 (≈ 3.8 µM) | 0.8 (≈ 1.9 µM) | 3.1 (≈ 7.35 µM) | 3.1 (≈ 7.35 µM) |
| ≤ 0.1 | 0.4 (≈ 0.91 µM) | 0.4 (≈ 0.91 µM) | ≤ 0.1 | COCCNCc1ccc(C#Cc2ccc(C(=O)N[C@H](C(=O)NO)C(C)(C)O)cc2)cc1 [Compound 221] | 1.6 (≈ 3.64 µM) | ≤ 0.1 | 1.6 (≈ 3.64 µM) | 0.8 (≈ 1.82 µM) | 0.8 (≈ 1.82 µM) | 3.1 (≈ 7.05 µM) |
| ≤ 0.1 | ≤ 0.1 | ≤ 0.1 | ≤ 0.1 | CC(C)(O)[C@H](NC(=O)c1ccc(C#Cc2ccc(CNCc3ccccc3)cc2)cc1)C(=O)NO [Compound 223] | 0.4 (≈ 0.848 µM) | ≤ 0.1 | 0.4 (≈ 0.848 µM) | 0.4 (≈ 0.848 µM) | 0.8 (≈ 1.7 µM) | 0.8 (≈ 1.7 µM) |
| ≤ 0.1 | ≤ 0.1 | 0.4 (≈ 0.797 µM) | ≤ 0.1 | COc1ccc(CNCc2ccc(C#Cc3ccc(C(=O)N[C@H](C(=O)NO)C(C)(C)O)cc3)cc2)cc1 [Compound 224] | 0.8 (≈ 1.59 µM) | ≤ 0.1 | 0.8 (≈ 1.59 µM) | 0.8 (≈ 1.59 µM) | 0.8 (≈ 1.59 µM) | 1.6 (≈ 3.19 µM) |
| ≤ 0.1 | ≤ 0.1 | ≤ 0.1 | ≤ 0.1 | CC(C)(O)[C@H](NC(=O)c1ccc(C#Cc2ccc(CNCc3cccnc3)cc2)cc1)C(=O)NO [Compound 228] | 0.4 (≈ 0.846 µM) | ≤ 0.1 | 0.8 (≈ 1.69 µM) | 0.4 (≈ 0.846 µM) | 0.8 (≈ 1.69 µM) | 1.6 (≈ 3.39 µM) |
| ≤ 0.1 | ≤ 0.1 | ≤ 0.1 | ≤ 0.1 | CC(C)(O)[C@H](NC(=O)c1ccc(C#Cc2ccc(CNCc3ccnc(Cl)c3)cc2)cc1)C(=O)NO [Compound 229] | 0.2 (≈ 0.394 µM) | ≤ 0.1 | 0.4 (≈ 0.789 µM) | 0.4 (≈ 0.789 µM) | 0.4 (≈ 0.789 µM) | 0.4 (≈ 0.789 µM) |
| ≤ 0.1 | ≤ 0.1 | ≤ 0.1 | ≤ 0.1 | CC(C)(O)[C@H](NC(=O)c1ccc(C#Cc2ccc(CNCc3ccccn3)cc2)cc1)C(=O)NO [Compound 230] | 0.8 (≈ 1.69 µM) | ≤ 0.1 | 0.8 (≈ 1.69 µM) | 0.4 (≈ 0.846 µM) | 0.8 (≈ 1.69 µM) | 1.6 (≈ 3.39 µM) |
